Experimental data from patent publication US9006451B1, “2-anilinonicotinyl based chalcones useful as potential anticancer agents and process for preparation thereof” (Council of Scientific and Industrial Research, priority 2013, dated 2015).
Where two headings read alike, the source gives them in different places.

Experiments:
Format in all cases: cell-based
SNB-75 = assay: NCI 60 human tumor cell line screen (SRB): SNB-75; conditions: SNB-75, CNS, 48 hours, read-out: GI50 values (μM conc.)
Procedure: (§1) The in vitro anticancer activity studies for these chalcone analogues were carried out at the National Cancer Institute, USA.
(§2) The chalcone compounds have been tested at NCI, USA, against sixty human tumor cell lines derived from nine cancer types (leukemia, non-small cell lung cancer, colon cancer, CNS cancer, melanoma cancer, ovarian cancer, renal cancer, prostate cancer and breast cancer). For these compounds results are expressed as growth inhibition (GI50) values as per NCI protocol.
(§3) We describe here the development and implementation of a pilot-scale, in vitro, anticancer drug screen utilizing a panel of 60 human tumor cell lines organized into subpanels representing leukemia, melanoma, and cancers of the lung, colon, kidney, ovary, and central nervous system. The ultimate goal of this disease-oriented screen is to facilitate the discovery of new compounds with potential cell line-specific and/or subpanel-specific antitumor activity. In the current screening protocol, each cell line is inoculated onto microtiter plates, then preincubated for 28 hours. Subsequently, test agents are added in five 10-fold dilutions and the culture is incubated for an additional 48 hours. For each test agent, a dose-response profile is generated. End-point determinations of the cell viability or cell growth are performed by in situ fixation of cells, followed by staining with a protein-binding dye, sulforhodamine B (SRB). The SRB binds to the basic amino acids of cellular macromolecules; the solubilized stain is measured spectrophotometrically to determine relative cell growth or viability in treated and untreated cells.

MOLT-4 = assay: NCI 60 human tumor cell line screen (SRB): MOLT-4; conditions: MOLT-4, Leukemia, 48 hours, read-out: GI50 values (μM conc.)
Procedure: as §1, §2, §3

BT-549 = assay: NCI 60 human tumor cell line screen (SRB): BT-549; conditions: BT-549, Breast, 48 hours, read-out: GI50 values (μM conc.)
Procedure: as §1, §2, §3

OVCAR-8 = assay: NCI 60 human tumor cell line screen (SRB): OVCAR-8; conditions: OVCAR-8, Ovarian, 48 hours, read-out: GI50 values (μM conc.)
Procedure: as §1, §2, §3

MDA-MB-231/ATCC = assay: NCI 60 human tumor cell line screen (SRB): MDA-MB-231/ATCC; conditions: Breast, 48 hours, read-out: GI50 values (μM conc.)
Procedure: as §1, §2, §3

OVCAR-5 = assay: NCI 60 human tumor cell line screen (SRB): OVCAR-5; conditions: OVCAR-5, Ovarian, 48 hours, read-out: GI50 values (μM conc.)
Procedure: as §1, §2, §3

MDA-MB-468 = assay: NCI 60 human tumor cell line screen (SRB): MDA-MB-468; conditions: MDA-MB-468, Breast, 48 hours, read-out: GI50 values (μM conc.)
Procedure: as §1, §2, §3

PC-3 = assay: NCI 60 human tumor cell line screen (SRB): PC-3; conditions: PC-3, Prostate, 48 hours, read-out: GI50 values (μM conc.)
Procedure: as §1, §2, §3

SW-620 = assay: NCI 60 human tumor cell line screen (SRB): SW-620; conditions: SW-620, Colon, 48 hours, read-out: GI50 values (μM conc.)
Procedure: as §1, §2, §3

HL-60(TB) = assay: NCI 60 human tumor cell line screen (SRB): HL-60(TB); conditions: Leukemia, 48 hours, read-out: GI50 values (μM conc.)
Procedure: as §1, §2, §3

UACC-257 = assay: NCI 60 human tumor cell line screen (SRB): UACC-257; conditions: UACC-257, Melanoma, 48 hours, read-out: GI50 values (μM conc.)
Procedure: as §1, §2, §3

NCI-H460 = assay: NCI 60 human tumor cell line screen (SRB): NCI-H460; conditions: NCI-H460, Non-small cell lung, 48 hours, read-out: GI50 values (μM conc.)
Procedure: as §1, §2, §3

786-0 = assay: NCI 60 human tumor cell line screen (SRB): 786-0; conditions: 786-0, Renal, 48 hours, read-out: GI50 values (μM conc.)
Procedure: as §1, §2, §3

TK-10 = assay: NCI 60 human tumor cell line screen (SRB): TK-10; conditions: TK-10, Renal, 48 hours, read-out: GI50 values (μM conc.)
Procedure: as §1, §2, §3

SNB-19 = assay: NCI 60 human tumor cell line screen (SRB): SNB-19; conditions: SNB-19, CNS, 48 hours, read-out: GI50 values (μM conc.)
Procedure: as §1, §2, §3

MCF7 = assay: NCI 60 human tumor cell line screen (SRB): MCF7
Procedure: as §1, §2, §3

LOX IMVI = assay: NCI 60 human tumor cell line screen (SRB): LOX IMVI; conditions: Melanoma, 48 hours, read-out: GI50 values (μM conc.)
Procedure: as §1, §2, §3

SF-268 = assay: NCI 60 human tumor cell line screen (SRB): SF-268; conditions: SF-268, CNS, 48 hours, read-out: GI50 values (μM conc.)
Procedure: as §1, §2, §3

HCT-116 = assay: NCI 60 human tumor cell line screen (SRB): HCT-116; conditions: HCT-116, Colon, 48 hours, read-out: GI50 values (μM conc.)
Procedure: as §1, §2, §3

ACHN = assay: NCI 60 human tumor cell line screen (SRB): ACHN; conditions: Renal, 48 hours, read-out: GI50 values (μM conc.)
Procedure: as §1, §2, §3

HT29 = assay: NCI 60 human tumor cell line screen (SRB): HT29; conditions: HT-29, HT29, Colon, 48 hours, read-out: GI50 values (μM conc.)
Procedure: as §1, §2, §3

OVCAR-3 = assay: NCI 60 human tumor cell line screen (SRB): OVCAR-3; conditions: OVCAR-3, Ovarian, 48 hours, read-out: GI50 values (μM conc.)
Procedure: as §1, §2, §3

NCI-H226 = assay: NCI 60 human tumor cell line screen (SRB): NCI-H226; conditions: NCI-H226, Non-small cell lung, 48 hours, read-out: GI50 values (μM conc.)
Procedure: as §1, §2, §3

SR = assay: NCI 60 human tumor cell line screen (SRB): SR; conditions: Leukemia, 48 hours, read-out: GI50 values (μM conc.)
Procedure: as §1, §2, §3

SK-OV-3 = assay: NCI 60 human tumor cell line screen (SRB): SK-OV-3; conditions: SK-OV-3, Ovarian, 48 hours, read-out: GI50 values (μM conc.)
Procedure: as §1, §2, §3

KM12 = assay: NCI 60 human tumor cell line screen (SRB): KM12; conditions: KM12, Colon, 48 hours, read-out: GI50 values (μM conc.)
Procedure: as §1, §2, §3

DU-145 = assay: NCI 60 human tumor cell line screen (SRB): DU-145; conditions: DU-145, Prostate, 48 hours, read-out: GI50 values (μM conc.)
Procedure: as §1, §2, §3

A498 = assay: NCI 60 human tumor cell line screen (SRB): A498; conditions: A498, Renal, 48 hours, read-out: GI50 values (μM conc.)
Procedure: as §1, §2, §3

MALME-3M = assay: NCI 60 human tumor cell line screen (SRB): MALME-3M; conditions: Melanoma, 48 hours, read-out: GI50 values (μM conc.)
Procedure: as §1, §2, §3

[1] = MCF7, Breast, 48 hours, SRB, read-out: GI50 values (μM conc.)
[2] = MCF7, comparison table, read-out: GI50 μM in MCF7

Structure (SMILES)	GI50 (SNB-75)	GI50 (MOLT-4)	GI50 (BT-549)	GI50 (OVCAR-8)	GI50 (MDA-MB-231/ATCC)	GI50 (OVCAR-5)	GI50 (MDA-MB-468)	GI50 (PC-3)	GI50 (SW-620)	GI50 (HL-60(TB))	GI50 (UACC-257)	GI50 (NCI-H460)	GI50 (786-0)	GI50 (TK-10)	GI50 (SNB-19)	GI50 (MCF7; [1])	GI50 (MCF7; [2])	GI50 (LOX IMVI)	GI50 (SF-268)	GI50 (HCT-116)	further results
COc1ccc(C(=O)/C=C/c2cccnc2Nc2cc(OC)c(OC)c(OC)c2)cc1 [6z, (E)-1-(4-Methoxyphenyl)-3-(2-(3,4,5-trimethoxyphenylamino)pyridin-3-yl)prop-2-en-1-one]	2.44 µM	2.26 µM	2.41 µM	2.2 µM	2.15 µM	1.95 µM	0.77 µM	1.13 µM	0.39 µM	1.27 µM	3.63 µM	2.16 µM	1.31 µM	2.06 µM	2.87 µM	0.18 µM	0.18 µM	1.12 µM	3.13 µM	0.53 µM	GI50 (ACHN): 1.7 µM; GI50 (HT29): 0.37 µM; GI50 (OVCAR-3): 0.48 µM; GI50 (NCI-H226): 1.73 µM; GI50 (SR): 0.09 µM; GI50 (SK-OV-3): 3.15 µM; GI50 (KM12): 0.46 µM; GI50 (DU-145): 2.59 µM; GI50 (A498): 4.28 µM; GI50 (MALME-3M): 3.24 µM
COc1cc(/C=C/C(=O)c2cccnc2Nc2ccc(F)cc2)cc(OC)c1OC [7f, (E)-1-(2-(4-Fluorophenylamino)pyridin-3-yl)-3-(3,4,5-trimethoxyphenyl)prop-2-en-1-one]	1.93 µM	2.75 µM	2.7 µM	2.69 µM	3.07 µM	4.1 µM	1.77 µM	3.95 µM	3.3 µM	2.4 µM	2.9 µM	2.83 µM	3.9 µM	3.52 µM	3.73 µM	2.44 µM	2.44 µM	1.69 µM	4.18 µM	1.54 µM	GI50 (ACHN): 2.84 µM; GI50 (HT29): 2.75 µM; GI50 (OVCAR-3): 2.63 µM; GI50 (NCI-H226): 1.79 µM; GI50 (SR): 1.93 µM; GI50 (SK-OV-3): 3.1 µM; GI50 (KM12): 3.72 µM; GI50 (DU-145): 3.32 µM; GI50 (A498): 2.18 µM; GI50 (MALME-3M): 6.9 µM
